Reference: ChEMBL document CHEMBL4346735, “Discovery and pharmacological evaluation of indole derivatives as potent and selective RORγt inverse agonist for multiple autoimmune conditions” (Bioorg Med Chem Lett, 2019)
pIC50: −log10 of the molar value. Converted amounts (≈) assume the structure as drawn.

Experiments:
[1] = target: Cytochrome P450 2C9 (Homo sapiens, UniProt P11712); assay: Inhibition of CYP2C9 in human liver microsomes using diclofenac as substrate preincubated for 5 mins followed by NADPH addition measured after 10 mins by LC-MS/MS analysis
Cytochrome P450 2C9, sequence (P11712 whole entry): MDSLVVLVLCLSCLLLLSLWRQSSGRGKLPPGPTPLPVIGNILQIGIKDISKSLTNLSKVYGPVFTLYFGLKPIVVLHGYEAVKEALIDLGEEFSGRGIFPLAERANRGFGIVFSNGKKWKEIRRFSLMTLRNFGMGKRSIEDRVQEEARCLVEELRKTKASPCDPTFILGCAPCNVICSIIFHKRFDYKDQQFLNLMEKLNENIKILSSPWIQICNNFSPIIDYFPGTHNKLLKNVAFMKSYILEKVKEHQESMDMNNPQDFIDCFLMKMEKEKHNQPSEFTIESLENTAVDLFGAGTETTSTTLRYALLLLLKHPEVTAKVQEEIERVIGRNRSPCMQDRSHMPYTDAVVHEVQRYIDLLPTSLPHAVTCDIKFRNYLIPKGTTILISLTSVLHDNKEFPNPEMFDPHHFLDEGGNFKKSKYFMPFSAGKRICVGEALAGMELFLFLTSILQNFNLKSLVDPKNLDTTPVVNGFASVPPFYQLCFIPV

[2] = Solubility of the compound at pH 2.1; conditions: buffer
[3] = Metabolic stability in rat liver microsomes assessed as parent compound remaining at 1 uM preincubated for 5 mins followed by NADPH addition after 30 mins by LC-MS/MS analysis; assay type: ADME, Microsome; conditions: read-out: Stability
[4] = target: T1, Cytochrome P450 1A2 (Homo sapiens, UniProt P05177); assay: Inhibition of CYP1A2 in human liver microsomes using phenacetin as substrate preincubated for 5 mins followed by NADPH addition measured after 10 mins by LC-MS/MS analysis
T1 sequence (P05177 whole entry): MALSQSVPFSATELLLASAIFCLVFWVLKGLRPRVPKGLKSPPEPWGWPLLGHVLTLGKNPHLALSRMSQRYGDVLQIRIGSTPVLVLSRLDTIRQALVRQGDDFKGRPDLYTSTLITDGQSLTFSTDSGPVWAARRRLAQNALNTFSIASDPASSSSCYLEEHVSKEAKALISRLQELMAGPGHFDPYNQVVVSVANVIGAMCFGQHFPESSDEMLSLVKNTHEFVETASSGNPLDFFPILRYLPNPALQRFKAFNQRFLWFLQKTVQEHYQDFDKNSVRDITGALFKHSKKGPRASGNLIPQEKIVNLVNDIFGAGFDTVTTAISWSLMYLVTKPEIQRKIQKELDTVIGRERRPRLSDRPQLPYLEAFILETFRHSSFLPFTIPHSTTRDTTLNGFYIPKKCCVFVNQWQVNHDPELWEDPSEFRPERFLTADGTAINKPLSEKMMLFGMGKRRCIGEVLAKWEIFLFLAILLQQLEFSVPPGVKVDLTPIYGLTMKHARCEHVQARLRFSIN

[5] = Metabolic stability in human liver microsomes assessed as parent compound remaining at 1 uM preincubated for 5 mins followed by NADPH addition after 30 mins by LC-MS/MS analysis; assay type: ADME, Microsome; conditions: read-out: Stability
[6] = Solubility of the compound at pH 7.4; conditions: buffer
[7] = Solubility of the compound at pH 4; conditions: buffer
[8] = Metabolic stability in mouse liver microsomes assessed as parent compound remaining at 1 uM preincubated for 5 mins followed by NADPH addition after 30 mins by LC-MS/MS analysis; assay type: ADME, Microsome; conditions: read-out: Stability
[9] = target: Cytochrome P450 2C19 (Homo sapiens, UniProt P33261); assay: Inhibition of CYP2C19 in human liver microsomes using (S)-mephenytoin as substrate preincubated for 5 mins followed by NADPH addition measured after 40 mins by LC-MS/MS analysis
Cytochrome P450 2C19, sequence (P33261 whole entry): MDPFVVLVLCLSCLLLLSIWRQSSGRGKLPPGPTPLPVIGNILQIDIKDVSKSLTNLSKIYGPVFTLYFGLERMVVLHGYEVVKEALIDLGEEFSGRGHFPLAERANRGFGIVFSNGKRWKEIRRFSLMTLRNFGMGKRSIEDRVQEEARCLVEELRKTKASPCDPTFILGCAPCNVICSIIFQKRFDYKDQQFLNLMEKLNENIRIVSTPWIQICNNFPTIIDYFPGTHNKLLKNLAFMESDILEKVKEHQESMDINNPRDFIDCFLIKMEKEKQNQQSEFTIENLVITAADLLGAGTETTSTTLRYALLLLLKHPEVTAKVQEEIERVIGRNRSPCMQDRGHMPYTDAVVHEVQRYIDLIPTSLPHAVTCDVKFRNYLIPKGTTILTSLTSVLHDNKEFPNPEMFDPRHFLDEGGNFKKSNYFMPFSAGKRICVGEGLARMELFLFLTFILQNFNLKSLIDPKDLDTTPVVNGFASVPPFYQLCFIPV

[10] = target: T2, Cytochrome P450 3A4 (Homo sapiens, UniProt P08684); assay: Inhibition of CYP3A4 in human liver microsomes using testosterone as substrate preincubated for 5 mins followed by NADPH addition measured after 10 mins by LC-MS/MS analysis
T2 sequence (P08684 whole entry, the tested form may be a part): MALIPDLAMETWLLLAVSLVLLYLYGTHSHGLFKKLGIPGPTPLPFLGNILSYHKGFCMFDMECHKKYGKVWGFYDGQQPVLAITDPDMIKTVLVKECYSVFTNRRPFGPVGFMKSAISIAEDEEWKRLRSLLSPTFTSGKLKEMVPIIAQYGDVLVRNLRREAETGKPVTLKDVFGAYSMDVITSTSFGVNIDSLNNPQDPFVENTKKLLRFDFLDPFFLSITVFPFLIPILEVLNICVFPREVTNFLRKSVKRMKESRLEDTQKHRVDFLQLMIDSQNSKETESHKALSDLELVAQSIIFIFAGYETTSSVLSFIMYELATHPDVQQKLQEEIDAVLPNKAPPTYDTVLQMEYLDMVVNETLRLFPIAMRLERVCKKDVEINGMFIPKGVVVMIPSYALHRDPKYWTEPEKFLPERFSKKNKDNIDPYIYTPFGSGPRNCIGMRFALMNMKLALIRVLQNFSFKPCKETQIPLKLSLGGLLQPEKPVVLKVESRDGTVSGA

[11] = target: T3, Nuclear receptor ROR-gamma (Homo sapiens, UniProt P51449); assay: Transactivation of recombinant GAL4-DBD fused RORgammat LBD (unknown origin) expressed in HEK293T cells incubated for 18 to 24 hrs by dual-Glo luciferase assay; assay type: cell-based
T3 sequence (P51449 whole entry): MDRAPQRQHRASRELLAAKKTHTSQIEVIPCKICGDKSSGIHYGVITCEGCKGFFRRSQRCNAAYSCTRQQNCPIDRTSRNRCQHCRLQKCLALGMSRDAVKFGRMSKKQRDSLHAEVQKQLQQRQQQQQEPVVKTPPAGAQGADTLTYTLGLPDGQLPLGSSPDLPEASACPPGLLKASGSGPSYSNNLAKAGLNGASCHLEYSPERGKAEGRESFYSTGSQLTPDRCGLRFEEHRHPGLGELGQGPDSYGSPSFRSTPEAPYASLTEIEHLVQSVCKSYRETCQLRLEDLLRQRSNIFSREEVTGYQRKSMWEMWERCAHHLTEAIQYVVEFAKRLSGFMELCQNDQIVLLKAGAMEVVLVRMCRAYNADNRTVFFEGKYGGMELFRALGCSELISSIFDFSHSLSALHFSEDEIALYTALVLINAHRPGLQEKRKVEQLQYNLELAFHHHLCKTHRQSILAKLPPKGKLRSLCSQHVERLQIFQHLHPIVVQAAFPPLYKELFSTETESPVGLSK

[12] = target: Cytochrome P450 2D6 (Homo sapiens, UniProt P10635); assay: Inhibition of CYP2D6 in human liver microsomes using dextromethorphan as substrate preincubated for 5 mins followed by NADPH addition measured after 10 mins by LC-MS/MS analysis
Cytochrome P450 2D6, sequence (P10635 whole entry): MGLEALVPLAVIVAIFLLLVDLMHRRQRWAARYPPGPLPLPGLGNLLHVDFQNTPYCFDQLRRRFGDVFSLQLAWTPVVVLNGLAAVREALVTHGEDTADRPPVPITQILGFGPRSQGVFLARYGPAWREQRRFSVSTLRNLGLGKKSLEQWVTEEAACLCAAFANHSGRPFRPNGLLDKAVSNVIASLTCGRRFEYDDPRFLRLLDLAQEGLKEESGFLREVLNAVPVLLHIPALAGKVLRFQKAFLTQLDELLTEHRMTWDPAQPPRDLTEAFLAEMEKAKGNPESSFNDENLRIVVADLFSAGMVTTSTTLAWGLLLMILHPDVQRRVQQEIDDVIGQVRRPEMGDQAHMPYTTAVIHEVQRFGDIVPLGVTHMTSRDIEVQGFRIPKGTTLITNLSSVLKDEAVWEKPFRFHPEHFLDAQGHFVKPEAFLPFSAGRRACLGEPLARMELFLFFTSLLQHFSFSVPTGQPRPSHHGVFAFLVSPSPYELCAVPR

[13] = target: T2, Cytochrome P450 3A4; assay: Inhibition of CYP3A4 in human liver microsomes using midazolam as substrate preincubated for 5 mins followed by NADPH addition measured after 10 mins by LC-MS/MS analysis
[14] = target: T3, Nuclear receptor ROR-gamma; assay: Inverse agonist activity at GST-tagged RORgammat LBD (unknown origin) using fluorescein-D22 co-activator peptide as substrate incubated for 1 hr by TR-FRET assay

SMILES	remaining at 0.5 h, 1 µM [3] [%]	remaining at 0.5 h, 1 µM [5] [%]	remaining at 0.5 h, 1 µM [8] [%]	pIC50 [11]	other results
O=C(O)c1ccc(-n2cc(C(=O)c3c(Cl)cccc3Cl)c3cccnc32)c(F)c1	90	100	92	7.49	pIC50 [1]: 4.80; solubility [2]: < 1 µM; pIC50 [4]: < 4.30; solubility [6]: > 2000 µM; solubility [7]: < 1 µM; pIC50 [9]: < 4.30; pIC50 [10]: < 4.30; pIC50 [12]: < 5.00
O=C(O)c1cc(F)c(-n2cc(C(=O)c3c(Cl)cccc3Cl)c3ccccc32)c(F)c1	30	94	75	8.00	
O=C(O)c1ccc(-n2cc(C(=O)c3c(F)cccc3Cl)c3ccccc32)cc1	100	100	100	6.70	pIC50 [13]: < 4.00; pIC50 [1]: 5.05; pIC50 [4]: 4.02; pIC50 [14]: 7.70; pIC50 [9]: < 4.00; pIC50 [12]: < 4.00
O=C(O)c1ccc(-n2cc(C(=O)c3ccccc3Cl)c3ccccc32)cc1			96	6.69	
COc1cccc2c(C(=O)c3c(Cl)cccc3Cl)cn(-c3ccc(C(=O)O)cc3)c12			83	6.14	pIC50 [14]: 6.46
O=C(O)c1cc(Cl)c(-n2cc(C(=O)c3c(Cl)cccc3Cl)c3ccccc32)c(Cl)c1				6.30	
O=C(O)c1ccc(-n2cc(C(=O)c3c(F)cc(F)cc3Cl)c3ccccc32)cc1				6.68	
O=C(O)c1ccc(-n2cc(C(=O)c3c(F)cccc3F)c3ccccc32)cc1	88	92	94	6.35	
O=C(O)c1ccc(-n2cc(C(=O)c3c(Cl)cccc3Cl)c3cccc(Cl)c32)cc1			76	7.15	
Cc1cccc2c(C(=O)c3ccccc3Cl)cn(-c3ccc(C(=O)O)cc3F)c12			67	6.92	pIC50 [14]: 8.09
O=C(O)c1ccc(-n2cc(C(=O)c3c(Cl)cccc3Cl)c3ccccc32)c(F)c1F			100	7.12	
Cc1cccc(Cl)c1C(=O)c1cn(-c2ccc(C(=O)O)cc2)c2c(F)cccc12	70	66	80	7.96	pIC50 [1]: 4.50; pIC50 [9]: < 4.30; pIC50 [10]: 4.57; pIC50 [12]: < 4.30
O=C(O)c1ccc(-n2cc(C(=O)c3c(Cl)cccc3Cl)c3cc(F)ccc32)cc1	76	87	82	6.60	
O=C([O-])c1ccc(-n2cc(C(=O)c3c(Cl)cccc3Cl)c3ccccc32)cc1.[Na+]					solubility [2]: 52 µM; solubility [6]: > 2000 µM; solubility [7]: 30 µM
Cc1cc(C(=O)O)ccc1-n1cc(C(=O)c2c(Cl)cccc2Cl)c2ccccc21				6.67	
O=C(O)c1ccc(-n2cc(C(=O)c3c(Cl)cccc3Cl)c3cccc(F)c32)c(F)c1	73	65	72		
O=C(O)c1ccc(-n2cc(C(=O)c3c(Cl)cccc3Cl)c3ccccc32)c(Cl)c1	48	76	64	6.91	

SMILES	remaining at 0.5 h, 1 µM [3] [%]	remaining at 0.5 h, 1 µM [5] [%]	remaining at 0.5 h, 1 µM [8] [%]	pIC50 [11]	other results
Cc1c(C(=O)c2c(Cl)cccc2Cl)c2ccccc2n1-c1ccc(C(=O)O)cc1			92	< 5.30	pIC50 [14]: 6.81
Cc1cccc(Cl)c1C(=O)c1cn(-c2ccc(C(=O)O)cc2F)c2cccc(F)c12	43	75	68	7.44	
Cc1cccc(Cl)c1C(=O)c1cn(-c2ccc(C(=O)O)cc2F)c2ncccc12	73	88	93	7.57	solubility [2]: < 1 µM; pIC50 [4]: < 4.30; solubility [6]: 1960 µM (≈ 803 µg/mL); solubility [7]: 1 µM (≈ 0.409 µg/mL); pIC50 [9]: < 4.30; pIC50 [10]: < 4.30
O=C(O)c1ccc(-n2cc(C(=O)c3c(Cl)cccc3C(F)(F)F)c3ccccc32)cc1	95	100	100		pIC50 [13]: 4.43; pIC50 [1]: 4.80; solubility [2]: 10 µM (≈ 4.44 µg/mL); pIC50 [4]: < 4.60; solubility [6]: 1470 µM (≈ 654 µg/mL); solubility [7]: 1 µM (≈ 0.444 µg/mL); pIC50 [9]: < 4.30; pIC50 [10]: < 4.30; pIC50 [12]: < 4.30
Cc1cc(-n2cc(C(=O)c3c(Cl)cccc3Cl)c3ccccc32)ccc1C(=O)O				5.70	
O=C(O)c1ccc(-n2cc(C(=O)c3c(Cl)cccc3Cl)c3ccc(F)cc32)cc1	61	91	80	6.70	
O=C(O)c1ccc(-n2cc(C(=O)c3c(Cl)cccc3Cl)c3ccccc32)cc1O	3	68	77	8.30	
O=C(O)c1ccc(-n2cc(C(=O)c3c(Cl)cccc3Cl)c3ccccc32)c(C(F)(F)F)c1	45	99	85	< 5.52	
O=C(O)c1ccc(-n2cc(C(=O)c3c(Cl)cccc3Cl)c3c(F)cccc32)c(F)c1	44	88	100	7.43	pIC50 [1]: 5.10; pIC50 [4]: < 4.30; pIC50 [9]: < 4.30; pIC50 [10]: 5.08; pIC50 [12]: < 4.30
O=C(O)c1ccc(-n2cc(C(=O)c3c(Cl)cccc3Cl)c3cccnc32)cc1	100	100	100	6.98	solubility [2]: 1 µM (≈ 0.411 µg/mL); solubility [6]: 407 µM (≈ 167 µg/mL); solubility [7]: 3 µM (≈ 1.23 µg/mL); pIC50 [14]: 7.70
Cc1cccc(Cl)c1C(=O)c1cn(-c2ccc(C(=O)O)cc2F)c2ccccc12	46	59	84	7.68	
O=C(O)c1ccc(-n2cc(C(=O)c3c(Cl)cccc3C(F)(F)F)c3cccnc32)cc1	55	83	84	7.36	
O=C(O)c1ccc(-n2cc(C(=O)c3c(Cl)cccc3C(F)(F)F)c3c(F)cccc32)cc1	65	79	96	7.42	pIC50 [1]: 4.65; pIC50 [4]: < 4.30; pIC50 [9]: 4.30; pIC50 [10]: 4.79; pIC50 [12]: < 4.30
O=C(O)c1ccc(-n2cc(C(=O)c3c(Cl)cc(Cl)cc3Cl)c3ccccc32)cc1			90	6.97	
O=C(O)c1ccc(-n2cc(C(=O)c3c(Cl)cccc3Cl)c3ccccc32)cc1F			92	6.54	
O=C(O)c1ccc(-n2cc(C(=O)c3c(Cl)cccc3Cl)c3ccccc32)cc1C(F)(F)F	61	71	61	< 6.00	
Cc1cccc(Cl)c1C(=O)c1cn(-c2ccc(C(=O)O)cc2)c2cccc(F)c12	70	77	80	7.03	
